# Read-outs that look alike come from different tables or passages of the source.
# How the values were obtained:
# CDC2 = CDC2 (Homo sapiens, UniProt P06493); experiment: KiNativ, MOLM13 live cells; type: cell-based; conditions: MOLM-13, 2 h, 100 nM
# Method: (§1) Samples were analyzed by KiNativ in situ kinase profiling by ActivX Biosciences.
# CaMK2d = CaMK2d (Homo sapiens, UniProt Q13557); experiment: KiNativ, MOLM13 live cells; type: cell-based; conditions: MOLM-13; 100 nM, 2 hours; Lys1; read-out: Inhibition vs DMSO
# Method: as §1
# CaMKK2 [1] = molecular target: T1, CaMKK2 (Homo sapiens, UniProt Q96RR4); experiment: KiNativ, MOLM13 live cells; type: cell-based; conditions: MOLM-13, 2 h, 100 nM
# T1 sequence (Q96RR4 whole entry): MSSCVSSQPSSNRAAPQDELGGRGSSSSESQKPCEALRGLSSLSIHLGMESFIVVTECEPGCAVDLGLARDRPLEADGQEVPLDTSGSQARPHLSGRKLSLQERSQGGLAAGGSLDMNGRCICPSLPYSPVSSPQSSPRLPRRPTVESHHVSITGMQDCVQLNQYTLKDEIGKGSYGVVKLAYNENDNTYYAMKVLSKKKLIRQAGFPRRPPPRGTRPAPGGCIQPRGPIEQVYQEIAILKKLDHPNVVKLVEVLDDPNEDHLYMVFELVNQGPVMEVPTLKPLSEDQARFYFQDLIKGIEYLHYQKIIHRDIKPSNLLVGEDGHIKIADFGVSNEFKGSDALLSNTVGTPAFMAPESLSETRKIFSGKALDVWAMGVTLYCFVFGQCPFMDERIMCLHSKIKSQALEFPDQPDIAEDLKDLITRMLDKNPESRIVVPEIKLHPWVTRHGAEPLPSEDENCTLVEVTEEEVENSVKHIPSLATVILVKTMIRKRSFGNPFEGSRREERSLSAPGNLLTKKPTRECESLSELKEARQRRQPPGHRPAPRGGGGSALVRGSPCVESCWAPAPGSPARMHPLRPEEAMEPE
# Method: as §1
# DNAPK = DNAPK (Homo sapiens, UniProt P78527); experiment: KiNativ, MOLM13 live cells; type: cell-based; conditions: MOLM-13, 2 h, 100 nM, ATP, read-out: Inhibition vs DMSO
# DNAPK, sequence (P78527 2-4128 limits assumed): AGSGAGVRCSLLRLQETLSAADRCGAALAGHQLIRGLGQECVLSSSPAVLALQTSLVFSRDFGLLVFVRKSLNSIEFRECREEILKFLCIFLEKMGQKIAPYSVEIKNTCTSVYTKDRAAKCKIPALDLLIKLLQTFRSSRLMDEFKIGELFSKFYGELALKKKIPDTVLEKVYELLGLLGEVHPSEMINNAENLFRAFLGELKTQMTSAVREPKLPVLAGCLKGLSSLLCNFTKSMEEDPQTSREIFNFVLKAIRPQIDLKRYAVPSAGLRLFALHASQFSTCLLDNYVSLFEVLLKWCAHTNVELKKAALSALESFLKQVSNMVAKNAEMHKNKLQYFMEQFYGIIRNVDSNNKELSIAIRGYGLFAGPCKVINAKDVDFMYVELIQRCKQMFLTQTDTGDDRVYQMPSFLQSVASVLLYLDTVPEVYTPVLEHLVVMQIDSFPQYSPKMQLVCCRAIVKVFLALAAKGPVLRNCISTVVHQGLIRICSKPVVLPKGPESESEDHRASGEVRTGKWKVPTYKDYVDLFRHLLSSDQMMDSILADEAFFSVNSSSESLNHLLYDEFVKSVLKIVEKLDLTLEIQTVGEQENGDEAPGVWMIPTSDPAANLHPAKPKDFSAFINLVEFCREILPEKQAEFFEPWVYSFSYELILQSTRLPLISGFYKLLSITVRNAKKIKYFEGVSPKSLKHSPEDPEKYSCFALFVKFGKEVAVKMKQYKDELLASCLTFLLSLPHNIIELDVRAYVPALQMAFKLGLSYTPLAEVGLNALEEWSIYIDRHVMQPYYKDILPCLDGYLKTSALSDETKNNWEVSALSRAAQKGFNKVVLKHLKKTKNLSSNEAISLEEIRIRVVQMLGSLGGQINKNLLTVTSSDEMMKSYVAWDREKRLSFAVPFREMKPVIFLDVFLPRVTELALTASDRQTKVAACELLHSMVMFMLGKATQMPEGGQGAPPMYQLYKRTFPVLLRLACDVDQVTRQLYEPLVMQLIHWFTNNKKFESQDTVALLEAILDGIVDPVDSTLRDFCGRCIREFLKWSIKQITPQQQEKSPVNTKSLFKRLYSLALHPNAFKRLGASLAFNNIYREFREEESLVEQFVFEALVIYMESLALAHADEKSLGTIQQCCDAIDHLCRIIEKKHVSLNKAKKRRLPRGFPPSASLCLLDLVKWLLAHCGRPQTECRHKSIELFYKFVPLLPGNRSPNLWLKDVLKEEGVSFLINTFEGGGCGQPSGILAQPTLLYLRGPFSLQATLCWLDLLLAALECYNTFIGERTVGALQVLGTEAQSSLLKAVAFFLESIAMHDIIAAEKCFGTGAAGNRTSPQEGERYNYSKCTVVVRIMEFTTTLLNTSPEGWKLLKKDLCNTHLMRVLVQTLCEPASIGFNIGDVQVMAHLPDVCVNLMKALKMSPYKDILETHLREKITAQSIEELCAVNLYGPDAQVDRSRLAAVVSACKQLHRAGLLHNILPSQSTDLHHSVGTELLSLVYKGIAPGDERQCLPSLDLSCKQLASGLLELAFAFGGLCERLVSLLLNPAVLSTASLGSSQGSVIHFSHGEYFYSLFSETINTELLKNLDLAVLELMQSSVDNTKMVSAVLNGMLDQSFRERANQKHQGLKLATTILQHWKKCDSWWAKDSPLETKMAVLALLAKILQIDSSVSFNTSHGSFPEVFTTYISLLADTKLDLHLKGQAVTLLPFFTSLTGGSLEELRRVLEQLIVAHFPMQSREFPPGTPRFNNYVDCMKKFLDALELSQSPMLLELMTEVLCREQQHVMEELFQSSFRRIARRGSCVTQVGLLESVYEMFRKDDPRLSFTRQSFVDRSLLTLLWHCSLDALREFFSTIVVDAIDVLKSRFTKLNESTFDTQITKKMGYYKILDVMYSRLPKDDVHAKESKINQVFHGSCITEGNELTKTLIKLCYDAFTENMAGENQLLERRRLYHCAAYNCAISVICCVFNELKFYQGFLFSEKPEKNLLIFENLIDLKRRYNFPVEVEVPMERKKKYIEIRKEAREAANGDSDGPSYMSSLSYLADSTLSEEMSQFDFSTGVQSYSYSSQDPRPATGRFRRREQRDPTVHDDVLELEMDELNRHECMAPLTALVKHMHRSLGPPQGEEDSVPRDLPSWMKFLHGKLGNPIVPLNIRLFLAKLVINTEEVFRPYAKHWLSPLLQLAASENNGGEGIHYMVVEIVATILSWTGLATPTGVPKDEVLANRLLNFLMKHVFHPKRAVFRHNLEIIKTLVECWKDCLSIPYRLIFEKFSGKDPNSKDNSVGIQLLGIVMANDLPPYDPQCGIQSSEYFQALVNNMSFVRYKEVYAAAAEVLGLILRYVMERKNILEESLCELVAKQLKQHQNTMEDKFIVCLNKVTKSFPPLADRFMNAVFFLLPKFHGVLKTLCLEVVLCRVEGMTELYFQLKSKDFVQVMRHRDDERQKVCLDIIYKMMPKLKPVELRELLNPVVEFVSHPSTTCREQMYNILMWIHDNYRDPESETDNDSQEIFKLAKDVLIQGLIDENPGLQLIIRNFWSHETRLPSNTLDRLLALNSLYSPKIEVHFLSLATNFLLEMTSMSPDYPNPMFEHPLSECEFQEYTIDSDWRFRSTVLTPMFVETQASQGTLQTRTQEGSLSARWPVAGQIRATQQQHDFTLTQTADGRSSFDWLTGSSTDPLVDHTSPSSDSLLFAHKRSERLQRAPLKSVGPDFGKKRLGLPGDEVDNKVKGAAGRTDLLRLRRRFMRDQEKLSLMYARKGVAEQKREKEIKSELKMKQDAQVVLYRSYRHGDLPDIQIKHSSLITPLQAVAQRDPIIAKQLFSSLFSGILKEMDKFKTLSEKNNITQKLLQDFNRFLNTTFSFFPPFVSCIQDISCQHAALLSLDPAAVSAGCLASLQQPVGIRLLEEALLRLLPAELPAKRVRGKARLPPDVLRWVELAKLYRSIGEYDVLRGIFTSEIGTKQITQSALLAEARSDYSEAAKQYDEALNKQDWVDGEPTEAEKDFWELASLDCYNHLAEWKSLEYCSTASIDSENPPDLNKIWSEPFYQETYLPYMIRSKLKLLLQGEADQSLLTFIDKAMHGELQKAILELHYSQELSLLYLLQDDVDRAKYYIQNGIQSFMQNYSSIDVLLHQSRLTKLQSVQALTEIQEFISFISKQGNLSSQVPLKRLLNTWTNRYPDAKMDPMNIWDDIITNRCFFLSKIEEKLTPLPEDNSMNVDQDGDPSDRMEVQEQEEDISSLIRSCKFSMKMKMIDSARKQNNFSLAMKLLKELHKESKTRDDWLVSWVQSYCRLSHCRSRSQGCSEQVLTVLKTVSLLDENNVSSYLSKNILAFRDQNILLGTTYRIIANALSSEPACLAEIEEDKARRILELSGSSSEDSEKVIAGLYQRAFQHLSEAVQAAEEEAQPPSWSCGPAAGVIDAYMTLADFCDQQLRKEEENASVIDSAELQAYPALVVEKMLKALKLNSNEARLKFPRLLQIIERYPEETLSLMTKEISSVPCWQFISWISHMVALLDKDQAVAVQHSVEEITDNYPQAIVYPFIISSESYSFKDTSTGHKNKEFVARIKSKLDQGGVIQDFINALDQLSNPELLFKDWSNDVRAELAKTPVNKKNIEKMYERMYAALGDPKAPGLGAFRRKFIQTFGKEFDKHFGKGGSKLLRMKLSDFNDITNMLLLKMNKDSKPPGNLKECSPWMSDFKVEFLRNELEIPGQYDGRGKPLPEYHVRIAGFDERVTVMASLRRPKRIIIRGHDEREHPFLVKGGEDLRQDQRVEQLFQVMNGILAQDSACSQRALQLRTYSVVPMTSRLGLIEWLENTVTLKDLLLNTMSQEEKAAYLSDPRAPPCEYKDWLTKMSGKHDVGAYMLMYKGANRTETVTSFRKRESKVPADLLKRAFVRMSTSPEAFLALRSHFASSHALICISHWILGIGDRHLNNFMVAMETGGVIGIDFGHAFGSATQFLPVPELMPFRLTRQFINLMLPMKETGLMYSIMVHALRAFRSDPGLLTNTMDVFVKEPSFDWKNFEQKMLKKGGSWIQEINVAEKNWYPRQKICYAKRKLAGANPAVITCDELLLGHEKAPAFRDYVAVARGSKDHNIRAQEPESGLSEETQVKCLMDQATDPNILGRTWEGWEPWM
# Method: as §1
# FAM20B = FAM20B (Homo sapiens, UniProt O75063); experiment: KiNativ, MOLM13 live cells; type: cell-based; conditions: MOLM-13; 100 nM, 2 hours; ATP; read-out: Inhibition vs DMSO
# Method: as §1
# MST3 = MST3 (Homo sapiens, UniProt Q9Y6E0); experiment: KiNativ, MOLM13 live cells; type: cell-based; conditions: 100 nM, 2 hours; Lys2
# Method: as §1
# NDR2 = NDR2 (Homo sapiens, UniProt Q9Y2H1); experiment: KiNativ, MOLM13 live cells; type: cell-based; conditions: MOLM-13; 100 nM, 2 hours; Lys1; read-out: Inhibition vs DMSO
# Method: as §1
# NEK2 = NEK2 (Homo sapiens, UniProt P51955); experiment: KiNativ, MOLM13 live cells; type: cell-based; conditions: MOLM-13; 100 nM, 2 hours; Lys2; read-out: Inhibition vs DMSO
# Method: as §1
# RSK1 domain2 = molecular target: T2, RSK1 domain2 (Homo sapiens, UniProt Q15418); experiment: KiNativ, MOLM13 live cells; type: cell-based; conditions: MOLM-13; 100 nM, 2 hours; Lys2; read-out: Inhibition vs DMSO
# T2 construct: RSK1 domain2
# Method: as §1
# YANK3 = YANK3 (Homo sapiens, UniProt Q86UX6); experiment: KiNativ, MOLM13 live cells; type: cell-based; conditions: MOLM-13; 100 nM, 2 hours; Lys2; read-out: Inhibition vs DMSO
# Method: as §1
# ZAK = ZAK (Homo sapiens, UniProt Q9NYL2); experiment: KiNativ, MOLM13 live cells; type: cell-based; conditions: MOLM-13; 100 nM, 2 hours; Lys1; read-out: Inhibition vs DMSO
# Method: as §1
# AurA, AurB, AurC = experiment: KiNativ, OCI cells live cell; type: cell-based, human; conditions: labeling site ATP Loop, peptide GKFGNVYLAR
# CaMKK2 [2] = molecular target: T1, CaMKK2; experiment: KiNativ, OCI cells live cell; type: cell-based; conditions: 2 h, labeling site Lys2, peptide […]
# DGKA = DGKA (Homo sapiens, UniProt P23743); experiment: KiNativ, OCI cells live cell; type: cell-based; conditions: 2 h, labeling site ATP, peptide […]
# FGR = FGR (Homo sapiens, UniProt P09769); experiment: KiNativ, OCI cells live cell; type: cell-based; conditions: 2 h, labeling site Activation Loop, peptide […]
# HPK1 = HPK1 (Homo sapiens, UniProt Q92918); experiment: KiNativ, OCI cells live cell; type: cell-based; conditions: 2 h
# JAK1 domain1 = molecular target: T3, JAK1 domain1 (Homo sapiens, UniProt P23458); experiment: KiNativ, OCI cells live cell; type: cell-based; conditions: labeling site Activation Loop, peptide QLASALSYLEDKDLVHGNVCTKNLLLAR
# T3 construct: JAK1 domain1
# LYN = LYN (Homo sapiens, UniProt P07948); experiment: KiNativ, OCI cells live cell; type: cell-based; conditions: 2 h
# MAP3K1 = MAP3K1 (Homo sapiens, UniProt Q13233); experiment: KiNativ, OCI cells live cell; type: cell-based; conditions: 2 h, labeling site Lys2, peptide […]
# MST2 = MST2 (Homo sapiens, UniProt Q13188); experiment: KiNativ, OCI cells live cell; type: cell-based; conditions: 2 h, labeling site Lys1, peptide […]
# NEK7 = NEK7 (Homo sapiens, UniProt Q8TDX7); experiment: KiNativ, OCI cells live cell; type: cell-based; conditions: 2 h, labeling site Lys1, peptide […]
# TLK1 = molecular target: T4, TLK1 (Homo sapiens, UniProt Q9UKI8); experiment: KiNativ, OCI cells live cell; type: cell-based; conditions: 2 h
# T4 sequence (Q9UKI8 1-766): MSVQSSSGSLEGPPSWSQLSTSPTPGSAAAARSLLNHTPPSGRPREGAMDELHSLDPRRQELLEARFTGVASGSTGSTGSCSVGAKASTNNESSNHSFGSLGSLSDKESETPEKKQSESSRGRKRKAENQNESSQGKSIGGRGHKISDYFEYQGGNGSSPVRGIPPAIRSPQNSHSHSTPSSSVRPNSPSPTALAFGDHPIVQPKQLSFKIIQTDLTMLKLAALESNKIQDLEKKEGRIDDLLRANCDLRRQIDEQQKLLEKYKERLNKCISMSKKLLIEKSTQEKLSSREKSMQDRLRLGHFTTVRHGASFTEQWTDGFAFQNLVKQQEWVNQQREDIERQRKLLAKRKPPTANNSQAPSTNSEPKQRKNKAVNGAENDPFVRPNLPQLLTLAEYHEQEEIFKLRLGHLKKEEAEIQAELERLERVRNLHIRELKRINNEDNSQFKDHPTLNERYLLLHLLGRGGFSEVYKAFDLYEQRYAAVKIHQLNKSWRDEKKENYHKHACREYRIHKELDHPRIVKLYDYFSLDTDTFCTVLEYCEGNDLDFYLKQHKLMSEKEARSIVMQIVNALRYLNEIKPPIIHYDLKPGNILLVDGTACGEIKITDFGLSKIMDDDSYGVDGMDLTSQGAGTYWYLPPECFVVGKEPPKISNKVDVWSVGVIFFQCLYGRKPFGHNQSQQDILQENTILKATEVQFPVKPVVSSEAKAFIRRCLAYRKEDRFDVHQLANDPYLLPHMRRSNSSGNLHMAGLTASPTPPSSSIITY
# [3] = Lys1, read-out: Inhibition vs DMSO
# [4] = Lys2, read-out: Inhibition vs DMSO
# CDC2, sequence (P06493 whole entry): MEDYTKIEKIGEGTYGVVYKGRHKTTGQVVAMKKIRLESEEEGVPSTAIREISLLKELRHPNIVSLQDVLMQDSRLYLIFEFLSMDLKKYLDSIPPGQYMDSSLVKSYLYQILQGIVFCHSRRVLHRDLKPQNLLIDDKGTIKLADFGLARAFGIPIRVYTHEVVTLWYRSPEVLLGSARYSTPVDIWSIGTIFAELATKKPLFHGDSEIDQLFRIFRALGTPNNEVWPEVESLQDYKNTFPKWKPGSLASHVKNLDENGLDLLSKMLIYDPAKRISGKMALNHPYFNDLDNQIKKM
structure (smiles),measurement,setting,value
CN1CCN(Cc2ccc(Nc3ncc(Cl)c(Nc4ccccc4S(=O)(=O)N(C)C)n3)cc2)CC1 [TP-0903],inhibition at 0.1 µM,CDC2; [3],2.5%
same,inhibition at 0.1 µM,CDC2; [4],0.8%
same,inhibition at 0.1 µM,"CDC2; Protein Kinase Domain, read-out: Inhibition vs DMSO",-40.6%
same,inhibition at 0.1 µM,CaMK2d,7.5%
same,inhibition at 0.1 µM,CaMKK2 [1]; [3],40.8%
same,inhibition at 0.1 µM,CaMKK2 [1]; [4],36.1%
same,inhibition at 0.1 µM,DNAPK; EHPFLVKGGEDLR,11.7%
same,inhibition at 0.1 µM,DNAPK; KGGSWIQEINVAEK,8.3%
same,inhibition at 0.1 µM,FAM20B,-5%
same,Inhibition vs DMSO,MST3,55.3%
same,inhibition at 0.1 µM,NDR2,-0.6%
same,inhibition at 0.1 µM,NEK2,-4.6%
same,inhibition at 0.1 µM,RSK1 domain2,-19.8%
same,inhibition at 0.1 µM,YANK3,-4.7%
same,inhibition at 0.1 µM,ZAK,7.6%
same,Inhibition,"AurA, AurB, AurC",91.0%
same,inhibition at 0.1 µM,CaMKK2 [2],63.2%
same,inhibition at 0.1 µM,DGKA,-41.6%
same,inhibition at 0.1 µM,FGR,9.5%
same,inhibition at 0.1 µM,"HPK1; labeling site Lys1, peptide DKVSGDLVALKMVK",81%
same,inhibition at 0.1 µM,"HPK1; labeling site Lys2, peptide DIKGANILINDAGEVR",78.7%
same,Inhibition,JAK1 domain1,87.3%
same,inhibition at 0.1 µM,"LYN; labeling site Activation Loop, peptide EGAKFPIKWTAPEAINFGCFTIK",19.1%
same,inhibition at 0.1 µM,"LYN; labeling site Lys1, peptide VAVKTLKPGTMSVQAFLEEANLMK",17.6%
same,inhibition at 0.1 µM,MAP3K1,57.6%
same,inhibition at 0.1 µM,MST2,7.3%
same,inhibition at 0.1 µM,NEK7,-38.8%
same,inhibition at 0.1 µM,"TLK1; labeling site Lys1, peptide YAAVKIHQLNK",-15.2%
same,inhibition at 0.1 µM,"TLK1; labeling site Lys2, peptide YLNEIKPPIIHYDLKPGNILLVDGTACGEIK",-2.5%

# — paper PMC7714403 (JCI Insight, 2020)
